Measurements reported in US4220645A, “Chromone derivatives” (Thea (Therapeutique et Applications) SA, priority 1977, dated 1980).
Where a name gives a salt, the structure may show the parent alone.

How the values were obtained:
[1] = tested on: rhythm disorders induced by aconitine; experiment: Anti-arrhythmic activity in the guinea-pig (aconitine-induced arrhythmia); assay type: in vivo; details: for Average time for arrhythmia to appear, PES (polymorphic extrasystoles) / Average time for arrhythmia to appear, VT (ventricular tachycardia) / Average time for arrhythmia to appear, MTV (multifocal ventricular tachycardia) / Average time for arrhythmia to appear, VTB (ventricular tachycardia bursts): 6 guinea pigs; for Average time for arrhythmia to appear, PES (polymorphic extrasystoles): controls 27 ± 2; for Average time for arrhythmia to appear, VT (ventricular tachycardia): controls 30 ± 2; for Average time for arrhythmia to appear, MTV (multifocal ventricular tachycardia): controls 41 ± 2; for Average time for arrhythmia to appear, VTB (ventricular tachycardia bursts): controls 63 ± 4; for Delay of rhythm disorders induced by aconitine: I.V., guinea-pig, compared with amiodarone
Method: Anti-arrhythmic activity in the guinea-pig
Reference: Experimental evaluation of anti-arrhythmic drugs in the guinea-pig. GUIDICELLI, WITCHITZ, LARNO, BOISSIER, Biomedecine, 1973, 19, 308-313.
Male and female guinea-pigs were used, weighing from 600 to 800 g and anesthetised with urethane (1.25 g/kg/I.P.), tracheotomised and kept under artificial respiration. The electrocardiogram (D2) was recorded.
Arrhythmia was produced by perfusion at the rate of 0.5 ml/min of an aqueous solution of aconitine nitrate (0.15 mg/ml) in the jugular vein. Measurements were made of the time before the following rhythm disturbances appeared:
Polymorphic extrasystoles (PES),
Ventricular tachycardia (VT),
Multifocal ventricular tachycardia (MVT),
Ventricular tachycardia bursts (VTB),
that is a sequence of ventricular complexes of fixed frequency but with regular increasing and decreasing amplitude.
The following substances were used:
Amiodarone hydrochloride for comparison.
The substances were intravenously injected immediately before perfusion with aconitine had started.

spontaneous heart rate = experiment: Bradycardiac activity on the conscious dog; assay type: in vivo, dog (mongrel); details: 4 mg/kg I.V.; for Average heart beat after substance injected: 9 dogs, before injection 132 ± 9, (S) significant to p = 0,05
Method: Bradycardiac activity on the conscious dog
The dogs used were male and female mongrels weighing from 15 to 20 kg. Their bypass electrocardiograms (D2) were recorded and their heart rate (FC) was measured with a cardiotachometer.
The animals were not used to tests and consequently their heart rate was relatively high, 130 beats per minute on average.
3 control measurements of the heart rate were made during the hour before intravenous injection of the substance under study, and 3 further measurements were made 5 minutes, 20 minutes and 35 minutes after administration.

[2] = tested on: tachycardia produced by isoprenaline stimulation of the sympathicoβ receptors of the heart; experiment: Sympathico-inhibiting activity in the conscious dog (isoprenaline tachycardia); assay type: in vivo, dog (mongrel); details: for Effect of isoprenaline after substance injected: 4 mg/kg I.V., 6 dogs, before injection 114 ± 9 (controls), (S) significant to P = 0,05
Method: Sympathico-inhibiting activity in the conscious dog
The dogs used were male and female mongrels weighing from 15 to 20 kg. The animals were not anaesthetised. Their electrocardiograms (D2) and heart rates were measured.
Short bouts of tachycardia, approx. 1 minute long, were produced by intravenously injecting a solution of isoprenaline in doses of 0.25 Y/kg. The injections were repeated every 15 minutes until the increase in heart rate had been reproduced in a satisfactory manner.
Next, the substance under study was intravenously injected and 3 additional measurements of the isoprenaline tachycardia were made 5 minutes, 20 minutes and 35 minutes after the product under study had been administered.

[3] = Acute toxicity in the mouse; assay type: in vivo; details: female Swiss mice
Method: Acute toxicity in the mouse
The acute toxicity of compound No. 6 administered intravenously (I.V.) and orally (P.O.) was determined in female mice of the Swiss strain weighing from 25 to 27 g.
Compound No. 6 was administered in aqueous solution in a concentration of 0.4% intravenously and in a concentration of 1% and 4% orally.

## CCCCc1oc2ccccc2c1C(=O)c1cc(I)c(OCCN(CC)CC)c(I)c1 [Amiodarone (hydrochloride), Amiodarone hydrochloride, reference compound]
[1]; 4 mg/kg I.V.
  Average time for arrhythmia to appear, PES (polymorphic extrasystoles): 32 ± 3 s
  Average time for arrhythmia to appear, VT (ventricular tachycardia): 44 ± 6 s
  Average time for arrhythmia to appear, MTV (multifocal ventricular tachycardia): 59 ± 5 s
  Average time for arrhythmia to appear, VTB (ventricular tachycardia bursts): 94 ± 8 s

## CCCCN(CCCC)CCCOc1c(C)cc(C(=O)c2cc(=O)c3ccccc3o2)cc1C [Compound No. 1, 2-[4-(3-N,N-dibutylaminopropoxy) 3,5-dimethylbenzoyl] chromone hydrochloride]
[1]; 2 mg/kg I.V.
  Average time for arrhythmia to appear, PES (polymorphic extrasystoles): 63 ± 4 s
  Average time for arrhythmia to appear, VT (ventricular tachycardia): 79 ± 9 s
  Average time for arrhythmia to appear, MTV (multifocal ventricular tachycardia): 94 ± 10 s
  Average time for arrhythmia to appear, VTB (ventricular tachycardia bursts): 139 ± 11 s
[1]
  Delay of rhythm disorders induced by aconitine: delay rhythm disorders induced by aconitine to a greater extent than the conventional reference compound, amiodarone
Spontaneous heart rate; conscious dog
  Effect on spontaneous heart rate: significantly lowers the spontaneous heart rate
Spontaneous heart rate; 5 min, spread ±10
  Average heart beat after substance injected: 114 beats/min
Spontaneous heart rate; 20 min, spread ±8
  Average heart beat after substance injected: 109 beats/min
Spontaneous heart rate; 35 min, spread ±8
  Average heart beat after substance injected: 107 beats/min
[2]; 5 min, spread ±12
  Effect of isoprenaline after substance injected: 68 beats per minute
[2]; 20 min, spread ±10
  Effect of isoprenaline after substance injected: 89 beats per minute
[2]; 35 min, spread ±10
  Effect of isoprenaline after substance injected: 97 beats per minute
[2]; isoprenaline tachycardia, conscious dog
  Sympathico-inhibiting activity: can moderate tachycardia produced by isoprenaline stimulation

## CCCCN(CCCC)CCCOc1c(C)cc(C(=O)c2oc3ccccc3c(=O)c2C)cc1C [Compound No. 6, 2-[4-(3-N,N-dibutylaminopropoxy) 3,5-dimethylbenzoyl] 3-methyl chromone hydrochloride]
[3]; I.V., aqueous solution 0.4%
  Lethal dose: ~30 mg/kg
[3]; P.O., aqueous solution 1% and 4%
  Lethal dose: ~1200 mg/kg

## CCCCN(CCCC)CCOc1c(C)cc(C(=O)c2cc(=O)c3ccccc3o2)cc1C [Compound No. 7, 2-[4-(2-N,N-dibutylaminoethoxy) 3,5-dimethylbenzoyl] chromone hydrochloride]
[1]; 4 mg/kg I.V.
  Average time for arrhythmia to appear, PES (polymorphic extrasystoles): 36 ± 4 s
  Average time for arrhythmia to appear, VT (ventricular tachycardia): 55 ± 8 s
  Average time for arrhythmia to appear, MTV (multifocal ventricular tachycardia): 77 ± 9 s
  Average time for arrhythmia to appear, VTB (ventricular tachycardia bursts): 145 ± 10 s
[1]
  Delay of rhythm disorders induced by aconitine: delay rhythm disorders induced by aconitine to a greater extent than the conventional reference compound, amiodarone
